# Measured values: US20090118316A1, “Methods for Augmenting Bone” (PFZER INC., priority 2004, published 2009)
# Entries after “also recorded” stand apart in the source; their conditions may differ.
# How the values were obtained:
# [1] = OVX rat model: body weight; assay type: in vivo; conditions: OVX rats, oral gavage 28 days, vs vehicle-treated OVX; PF—X (di-hydrochloride salt) 10 or 30 mg/kg/d, EE 30 μg/kg/d
# [2] = system: ovariectomized (OVX) rat model; test: OVX rat model: serum osteocalcin by RIA; assay type: in vivo; conditions: OVX rats, 2 weeks post-treatment, vs vehicle-treated OVX rats
# [3] = system: ovariectomized (OVX) rat model; test: OVX rat model: pQCT analysis of distal femoral metaphysis; assay type: in vivo; conditions: OVX rats vs vehicle, PF—X 10 or 30 mg/kg/d, 28 days; for cortical bone content / total bone mineral content / total bone mineral density: EE 30 μg/kg/d
# [4] = system: ovariectomized (OVX) rat model; test: OVX rat model: trabecular bone histomorphometry of proximal tibial metaphysis; assay type: in vivo; conditions: OVX rats vs vehicle, PF—X 30 mg/kg/d, 28 days; for bone formation rate/BV / bone formation rate/TV / mineral apposition rate / osteoclast number / osteoclast surface / percent mineralizing surface: EE 30 μg/kg/d
# [5] = system: murine mesenchymal stem cells; test: Alkaline phosphatase activity in murine MSC; assay type: cell-based, mouse; conditions: murine MSCs, OS media, 1 μM dexamethasone or increasing doses of PF—Y; units per culture or per μg DNA (FIG. 2)
# Method: (§1) Quantitative Alkaline Phosphatase Measurement. For quantitative alkaline phosphatase measurements, cells were washed twice with Dulbecco's phosphate buffered saline (DPBS) followed by incubation with substrate buffer (50 mM glycine, 1 mM magnesium chloride, pH 10.5) containing 1.3 mg/ml p-nitrophenol phosphate. The levels of alkaline phosphatase activity were determined by measuring the absorbance at 405 nm and compared to p-nitrophenol standards. The level of alkaline phosphatase activity was corrected for the amount of DNA in each sample.
# (§2) Murine mesenchymal stem cells isolated from femurs and tibiae of C57BI/6 mice were cultured in alpha-MEM containing 10% fetal bovine serum (FBS) and plated in six well dishes at a density of […]. The day after plating, the media were removed and replaced with media alone, in media with OS, or in OS media containing either 1 μM of dexamethasone or increasing doses of PF—Y for 21 days. “OS” medium” contains 50 μM ascorbic acid and 10 mM β-glycerophosphate. Media were refreshed every 3 days. The amount of alkaline phosphatase was measured on day 7 and day 21. The amounts of secreted calcium were determined only on day 21. The VonKossa stain was done after staining day 21 samples for alkaline phosphatase.
# [6] = system: murine mesenchymal stem cells; test: Calcium deposition in murine MSC; assay type: cell-based, mouse; conditions: murine MSCs, OS media, day 21, 1 μM dexamethasone or increasing doses of PF—Y; μg per culture or per μg DNA (FIG. 3)
# Method: (§3) Calcium Assay. Calcium deposited by the cells was measured using a diagnostic kit (Sigma #587A). Briefly, cells were rinsed twice with DPBS and hydrolyzed in 0.5 N HCl rotating overnight at 4°. Cells were then scraped and cellular debris was pelleted. Supernatants were used to measure calcium levels following manufacturer's protocol. The absorbance at 570 nm was determined and compared to calcium standards. Calcium levels were corrected for the DNA content in each well.
# as §2
# [7] = system: human mesenchymal stem cells; test: Alkaline phosphatase activity in human MSC; assay type: cell-based; conditions: human MSCs, OS media; units per μg DNA (FIG. 4)
# Method: as §1
# (§4) Human mesenchymal stem cells were cultured in DMEM-high glucose containing 10% FBS and 10 mM l-glutamine and plated in six well dishes at a density of 3×10^4 cells/well. The day after plating, these cultures were treated and analyzed as in Example 2.
# [8] = system: human mesenchymal stem cells; test: Calcium deposition in human MSC; assay type: cell-based; conditions: human MSCs, compared to OS media alone; PF—Y especially the two lower doses (FIG. 5)
# Method: as §3, §4
# murine MC3T3 cells = test: Alkaline phosphatase activity in MC3T3 cells; assay type: cell-based, mouse; conditions: OS media with increasing doses of PF—Y, units per plate or per μg DNA (FIG. 6)
# Method: as §1
# MC3T3 cells were cultured in alpha-MEM media containing 10% FBS and plated in six well dishes at a density of 5×10^4 cells/well. The day after plating, the media were removed and OS media with increasing doses of PF—Y were added. Media were refreshed every 3 days. The amount of alkaline phosphatase was measured as in Example 2 and 3.
# PYK2 = biological target: T1, PYK2 (Mus musculus, UniProt Q9QVP9); test: AIF-stimulated phosphorylation of PYK2 tyrosine 402 in MC3T3 cells (immunoprecipitation, SDS-PAGE); assay type: cell-based; conditions: Aluminum fluorate (AIF), 3 mM PF—Y (FIG. 7)
# T1 construct: endogenous in cells; host or cells: murine MC3T3 cells
# T1 sequence (Q9QVP9 whole entry): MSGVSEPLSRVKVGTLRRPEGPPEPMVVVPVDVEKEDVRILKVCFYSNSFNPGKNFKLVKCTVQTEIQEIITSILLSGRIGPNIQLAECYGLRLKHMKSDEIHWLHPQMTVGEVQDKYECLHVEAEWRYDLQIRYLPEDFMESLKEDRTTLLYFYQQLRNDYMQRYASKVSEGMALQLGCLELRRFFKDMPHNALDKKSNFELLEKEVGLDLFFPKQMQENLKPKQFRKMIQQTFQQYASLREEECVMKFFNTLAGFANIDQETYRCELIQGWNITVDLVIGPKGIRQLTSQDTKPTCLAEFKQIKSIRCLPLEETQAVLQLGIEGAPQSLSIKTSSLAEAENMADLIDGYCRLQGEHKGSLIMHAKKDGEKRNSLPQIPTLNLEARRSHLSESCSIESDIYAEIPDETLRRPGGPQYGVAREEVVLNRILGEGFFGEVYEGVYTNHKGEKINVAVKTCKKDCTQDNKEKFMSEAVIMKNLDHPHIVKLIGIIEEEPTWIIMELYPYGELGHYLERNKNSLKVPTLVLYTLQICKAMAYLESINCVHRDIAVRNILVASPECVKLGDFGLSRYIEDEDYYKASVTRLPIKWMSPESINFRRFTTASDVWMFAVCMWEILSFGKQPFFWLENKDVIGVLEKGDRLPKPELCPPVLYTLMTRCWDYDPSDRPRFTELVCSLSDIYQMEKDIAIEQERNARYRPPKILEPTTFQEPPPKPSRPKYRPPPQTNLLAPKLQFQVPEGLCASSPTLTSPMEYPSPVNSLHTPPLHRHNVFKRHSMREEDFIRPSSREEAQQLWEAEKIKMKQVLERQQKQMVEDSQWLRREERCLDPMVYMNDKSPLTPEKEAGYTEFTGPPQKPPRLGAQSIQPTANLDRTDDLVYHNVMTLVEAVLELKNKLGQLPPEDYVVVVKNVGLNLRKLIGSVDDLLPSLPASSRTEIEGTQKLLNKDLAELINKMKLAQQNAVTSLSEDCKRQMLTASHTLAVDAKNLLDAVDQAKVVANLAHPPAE
# Method: Murine MC3T3 cells were treated with Aluminum fluorate (AIF) alone or in the presence of 3 mM PF—Y. Cells were lysed and the amount of total PYK2 and phosphorylated PYK2 (P-Y402) were determined by immunoprecipitation with antibodies that recognize total PYK2 or phosphorylated Tyr 402 PYK2 followed by SDS-PAGE.
SMILES,body weight [1],Serum osteocalcin [2],cortical bone content [3],total bone mineral content [3],total bone mineral density [3],bone formation rate/BV [4],bone formation rate/TV [4],mineral apposition rate [4],osteoclast number [4],osteoclast surface [4],percent mineralizing surface [4],other results
"C#C[C@]1(O)CC[C@H]2[C@@H]3CCc4cc(O)ccc4[C@H]3CC[C@@]21C [EE, 17[…]-ethynyl estradiol, reference compound]",prevented OVX-induced weight gain,significantly decreased,higher,higher,higher,decreases,decreases,decreases,decreases,decreases,decreases,
CN(c1ccccc1CNc1nc(Nc2ccc3c(c2)CC(=O)N3)ncc1C(F)(F)F)S(C)(=O)=O [PF—X],No significant difference,significantly increased,significant increases,significant increases,significant increases,significant increase,significant increase,significant increase,significant decrease,significant decrease,significant increase,total bone area [3]: significant increases; trabecular bone density [3]: significant increases; trabecular bone volume [4]: significant increase; trabecular thickness [4]: significant increase
Cc1cc(C)c(/C=C2\C(=O)Nc3ccc(O)cc32)[nH]1 [PF—Y],,,,,,,,,,,,alkaline phosphatase activity [5]: elevated; calcium deposition [6]: increased; alkaline phosphatase activity [7]: elevated; calcium deposition [8]: increased; alkaline phosphatase activity (murine MC3T3 cells): elevated; AIF-induced phosphorylation of tyrosine 402 of PYK2 (PYK2): inhibited; also recorded: inhibition
